Data as given in PMC10959927, “Platinum iodido drugs show potential anti-tumor activity, affecting cancer cell metabolism and inducing ROS and senescence in gastrointestinal cancer cells” (Communications Biology, 2024).
“And” between values parts separate entries of the source, which are not always exact repeats. Identical values can stand only once.

Tests used:
[1] = system: PANC1 xenografted tumors in NU-Foxn1nu nude mice; assay: PANC1 xenograft in vivo treatment; design: species or system mouse; conditions: for Fold-change in tumor volume vs d0: individual tumors
Method: (§1) PANC1 cells were then trypsinized and resuspended in RPMI culture medium with 40% Matrigel (no. 45354234, Corning® Matrigel® Basement Membrane Matrix, LDEV-free, Cultek, Spain) at a concentration of 1 × 10^5 cells per 50 μL, and then 50 μL of the resuspended cells were subcutaneously injected into the right and left flanks of female 8 week-old NU-Foxn1nu nude mice (Janvier Labs, France). Tumor growth and volumes were monitored every 2–3 days for up to 4 weeks with a caliper, and tumor volumes (mm^3) were computed using the formula: 0.5 × D12 × D2, where D1 and D2 are the width or the […] diameter and the length or the smallest diameter of a given tumor, respectively. At the end of the experiment, mice were sacrificed, and tumors extracted, photographed, and weighed. (ii) For xenograft in vivo treatment experiments, 1 × 10^6 PANC1 cells resuspended in RPMI culture medium supplemented with 40% Matrigel (Corning®) were orthotopically injected in the pancreas of female NU-Foxn1nu nude mice (Janvier Labs, France). Approximately 2 months post injection, tumors were excised, cut into identical pieces of ~50 mm^3 and implanted (with RPMI culture medium supplemented with 40% Matrigel® Corning®) subcutaneously into the left and right flanks of 15 8 week-old NU-Foxn1nu nude mice (Janvier, France). […] Control mice were treated with 100 µl of physiological saline (0.9% NaCl). Tumor volumes were determined twice per week by caliper measurements throughout the course of the study as described above. At the indicated end point, mice were sacrificed, weighed, blood was collected in EDTA tubes (Aquisel, Cat no. 107545), urine was collected in 1.5 ml Eppendorf tubes, and tumors were excised, weighed, photographed, and fixed in 4% Paraformaldehyde (Alfa Aesar™).

[2] = system: NU-Foxn1nu nude mice; assay: Whole blood hematology of treated xenograft mice; assay type: in vivo, mouse; conditions: for Basophils / Eosinophils / Haemoglobin / Hematocrit / Lymphocytes / MCH / MCHC / MCV / MPV / Monocytes / Neutrophils / RDW-CV: individual mice
Method: as §1
(§2) Whole blood was analyzed with an Element HT5, Veterinary Hematology Analyzer (Scil animal care company GmbH, Madrid, Spain) and plasma was analyzed at the Analytical Laboratory of the Hospital Fundación Jiménez Díaz. Plasma-EDTA samples were examined for markers of renal (urea, BUN, and creatinine) and liver [bilirubin and GGT (γ-Glutamyltransferase)] injury. Urine was analyzed for protein, creatinine and glucose. Urea, creatinine, and glucose were detected by enzymatic assays, total protein by turbidimetry, and bilirubin and GGT via a colorimetric assay in the Cobas® Roche 701 module (a fully automated, high throughput photometric analyzer for a large array of quantitative and qualitative in vitro tests), following the manufacturer’s instructions.

[3] = system: NU-Foxn1nu nude mice; assay: Plasma biochemistry (renal and liver injury markers) of treated xenograft mice; assay type: in vivo, mouse; conditions: for BUN / Urea: blood
Method: as §1, §2

[4] = system: NU-Foxn1nu nude mice; assay: Urine analysis of treated xenograft mice; assay type: in vivo, mouse
Method: as §1, §2

[5] = system: PANC1 cells in NU-Foxn1nu nude mice; assay: Xenograft of pre-treated PANC1 cells; assay type: in vivo, mouse; conditions: for Tumor Growth (mm3): ND: No Detected
Method: as §1

[6] = PANC1 xenograft, 1.4 mg/kg r.o.
[7] = 17 days of I5 treatment, 1.4 mg/kg r.o. or i.p.
[8] = Intra-Peritoneal group (I5 1.4 mg/kg), d17, single mice, 1.4 mg/kg
[9] = Retro-Orbital group (I5 1.4 mg/kg), d17, single mice, 1.4 mg/kg
[10] = Intra-Peritoneal group (I5 1.4 mg/kg), single mice
[11] = Intra-Peritoneal group (I5 1.4 mg/kg), single mice, 1.4 mg/kg
[12] = Retro-Orbital group (I5 1.4 mg/kg), single mice, 1.4 mg/kg

## CC(C)[NH][Pt@SP3]([I])([I])[NH]C(C)C [I5, trans-[PtI2(isopropylamine)2]]
[1]; IP, 0 days post-treatment initiation
  Fold-change in tumor volume vs d0: 1
[1]; IP, 3 days post-treatment initiation
  Fold-change in tumor volume vs d0: 1.05 and 1.45 and 0.79 and 1.51 and 1.63 and 0.95 and 1.1
[1]; IP, 7 days post-treatment initiation
  Fold-change in tumor volume vs d0: 1.29 and 1.56 and 0.79 and 1.32 and 1.71 and 0.86 and 1.49
[1]; IP, 10 days post-treatment initiation
  Fold-change in tumor volume vs d0: 1.75 and 2.48 and 0.96 and 2.5 and 2.73 and 1.37 and 2.28
[1]; IP, 14 days post-treatment initiation
  Fold-change in tumor volume vs d0: 2.21 and 4.16 and 0.85 and 2.92 and 3.98 and 1.35 and 3.75
[1]; IP, 17 days post-treatment initiation
  Fold-change in tumor volume vs d0: 3.08 and 4.39 and 0.91 and 3.92 and 4.58 and 1.62 and 4.25
[1]; PANC1 xenograft, 1.4 mg/kg i.p.
  tumor growth: reduced tumor growth
[1]; [6]
  tumor growth: reduced tumor growth
  tumor volume at conclusion of the experiment: statistically significant effect on tumor volume
  tumor weight at conclusion of the experiment: marked reduction in tumor weight
[1]; RO, 0 days post-treatment initiation
  Fold-change in tumor volume vs d0: 1
[1]; RO, 3 days post-treatment initiation
  Fold-change in tumor volume vs d0: 0.66 and 0.95 and 1.12 and 1.34 and 1.68
[1]; RO, 7 days post-treatment initiation
  Fold-change in tumor volume vs d0: 0.81 and 1.29 and 1.57 and 1.05 and 1.08
[1]; RO, 10 days post-treatment initiation
  Fold-change in tumor volume vs d0: 0.74 and 2.21 and 2.36 and 1.14 and 1.44
[1]; RO, 14 days post-treatment initiation
  Fold-change in tumor volume vs d0: 0.85 and 2.64 and 3.43 and 1.26 and 1.18
[1]; RO, 17 days post-treatment initiation
  Fold-change in tumor volume vs d0: 1.43 and 3.89 and 4.46 and 1.56 and 1.13
[2]; [7]
  adverse effects on hematocrit parameters: no adverse effects
[2]; Intra-peritoneal
  Basophils: 0.41 109 cells/L and 0.45 109 cells/L and 0.47 109 cells/L and 0.86 109 cells/L
  Eosinophils: 0.45 109 cells/L and 0.33 109 cells/L and 0.19 109 cells/L and 0.47 109 cells/L
  Haemoglobin: 18.5 g/dL and 17.5 g/dL and 19.1 g/dL and 17.7 g/dL
  Hematocrit: 43.4% and 39.8% and 44.6%
  Lymphocytes: 4.49 109 cells/L and 2.36 109 cells/L and 3.04 109 cells/L and 4.43 109 cells/L
  MCH: 19.3 pg and 19.1 pg and 19.2 pg and 19.7 pg
  MCHC: 42.6 g/dL and 44 g/dL and 42.8 g/dL and 44.4 g/dL
  MCV: 45.3 fL and 43.5 fL and 44.8 fL and 44.2 fL
  MPV: 6.1 fL and 5.5 fL and 6 fL
  Monocytes: 1.17 109 cells/L and 0.96 109 cells/L and 0.45 109 cells/L and 3.1 109 cells/L
  Neutrophils: 4.24 109 cells/L and 2.95 109 cells/L and 1.59 109 cells/L and 5.08 109 cells/L
  RDW-CV: 13.9% and 14.8% and 14.3%
[2]; Retro-orbital
  Basophils: 0.43 109 cells/L and 0.62 109 cells/L and 0.64 109 cells/L
  Eosinophils: 0.21 109 cells/L and 0.31 109 cells/L and 0.34 109 cells/L
  Haemoglobin: 18.3 g/dL
  Hematocrit: 42.9% and 41.4% and 42.8%
  Lymphocytes: 2.46 109 cells/L and 3.66 109 cells/L and 5.37 109 cells/L
  MCH: 19 pg and 20.5 pg and 19.2 pg
  MCHC: 42.6 g/dL and 44.2 g/dL and 42.9 g/dL
  MCV: 44.5 fL and 46.3 fL and 44.8 fL
  MPV: 5.6 fL and 6.1 fL and 5.2 fL
  Monocytes: 0.91 109 cells/L and 0.87 109 cells/L and 0.47 109 cells/L
  Neutrophils: 3.45 109 cells/L and 3.24 109 cells/L and 2.71 109 cells/L
  RDW-CV: 14.2% and 14.7% and 14.6%
[3]; [7]
  adverse effects on plasma blood analyses: no adverse effects
[3]; Intra-Peritoneal group (I5 1.4 mg/kg), d17, single mice
  GGT: < 3 UI/L
[3]; [8]
  Serum Creatinine: 0.2 mg/dL and 0.17 mg/dL and 0.22 mg/dL
  BUN: 19 mg/dL and 18 mg/dL and 16 mg/dL
  Urea: 40 mg/dL and 39 mg/dL and 38 mg/dL and 35 mg/dL
[3]; Retro-Orbital group (I5 1.4 mg/kg), d17, single mice
  GGT: < 3 UI/L
[3]; [9]
  Serum Creatinine: 0.17 mg/dL and 0.2 mg/dL and 0.21 mg/dL
  Total Bilirubin: < 0.15 mg/dL and < 0.21 mg/dL
  BUN: 16 mg/dL and 19 mg/dL
  Urea: 40 mg/dL and 34 mg/dL and 35 mg/dL
[4]; [7]
  adverse effects on urine analyses: no adverse effects
[4]; [10]
  Creatinine in Urine: 59 mg/dL
  Protein/Creatinine in Urine: 8814
[4]; [11]
  Glucose in Urine: 40 mg/dL and 20 mg/dL
  Protein in Urine: 80 mg/dL and 52 mg/dL
[4]; Retro-Orbital group (I5 1.4 mg/kg), single mice
  Glucose in Urine: 30 mg/dL
[4]; [12]
  Creatinine in Urine: 56 mg/dL and 57 mg/dL and 61 mg/dL
  Protein/Creatinine in Urine: 10536 and 9221 and 16383
[5]; Day 7
  Tumor Take (%): 0%
[5]; Day 10
  Tumor Take (%): 12.5%
[5]; Day 10, individual tumors
  Tumor Growth (mm3): 10.7 mm3
[5]; Day 13
  Tumor Take (%): 12.5%
[5]; Day 13, individual tumors
  Tumor Growth (mm3): 7.7 mm3
[5]; Day 16
  Tumor Take (%): 25%
[5]; Day 16, individual tumors
  Tumor Growth (mm3): 9.4 mm3 and 8.5 mm3
[5]; Day 20
  Tumor Take (%): 25%
[5]; Day 20, individual tumors
  Tumor Growth (mm3): 7.4 mm3 and 10.1 mm3
[5]; Day 23
  Tumor Take (%): 37.5%
[5]; Day 23, individual tumors
  Tumor Growth (mm3): 8 mm3 and 10.9 mm3 and 9.7 mm3
[5]; Day 28
  Tumor Take (%): 62.5%
[5]; Day 28, individual tumors
  Tumor Growth (mm3): 9.8 mm3 (2×) and 10.8 mm3 and 10.9 mm3 and 11.6 mm3 and 8.7 mm3
[5]; PANC1 cells pre-treated 24 h with 20 µM, injected s.c. into nude mice
  tumor volumes and weights on day 28: significantly reduced volumes and weights
[5]; PANC1 cells pre-treated 24 h with 20 µM, injected s.c. into nude mice, 28 days
  tumor take and growth: clear delay in tumor take and growth
[5]; individual tumors
  Tumor Weight: 0.1301 g and 0.0568 g and 0.1068 g and 0.0882 g and 0.0887 g and 0.1001 g
